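Assay format: 96-well plates, 48-hour exposure. TGI is the concentration that stops growth completely.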
What was measured:
Assay in all cases: growth of human tumour cells (NCI), 48 h
M14 melanoma = system: M14 melanoma
MDA-MB-435 = system: MDA-MB-435
SN12C renal = system: SN12C renal
T-47D breast = system: T-47D breast
K-562 leukemia = system: K-562 leukemia
A549 NSCLC = system: A549 NSCLC
KM12 colon = system: KM12 colon
SW-620 colon = system: SW-620 colon
SK-MEL-5 melanoma = system: SK-MEL-5 melanoma
EKVX NSCLC = system: EKVX NSCLC

SMILES	TGI (M14 melanoma) [µM]	TGI (MDA-MB-435) [µM]	TGI (SN12C renal) [µM]	TGI (T-47D breast) [µM]	TGI (K-562 leukemia) [µM]	TGI (A549 NSCLC) [µM]	TGI (KM12 colon) [µM]	TGI (SW-620 colon) [µM]	TGI (SK-MEL-5 melanoma) [µM]	TGI (EKVX NSCLC) [µM]
CS(=O)(=O)c1nc(-c2cc3c(c(S(C)(=O)=O)n2)CCCC3)cc2c1CCCC2	> 100	> 100	> 100	> 100	> 100	> 100	> 100	> 100	> 100	> 100
CN(C)CCn1c(=O)c2ccc3c4c(nn3CCN(C)C)c3cc(N)ccc3n(c1=O)c24	0.18	0.0654	0.069	0.849	16.7	0.114	0.63	1.87	0.237	0.237
OCCOCn1cc(Cn2ncc3c(SCc4ccccc4)ncnc32)nn1	> 100	35.1	> 100	> 100	> 100	> 100	> 100	> 100	> 100	> 100
O=C(O)C(CSC(c1ccccc1)(c1ccccc1)c1ccccc1)N=Cc1cccs1 (stereo not given)	5.11	1.21	98.1	> 100	> 100	> 100	> 60.7	> 100	> 24.7	> 100
N#CC(c1ccccc1)N1CCCN(C(C#N)c2ccccc2)C1c1ccccc1O (stereo not given)	> 100	> 100	> 100	> 100	> 100	> 100	> 100	> 100	> 100	> 100
Nc1ccccc1N/C(=C\C(=O)C(Cl)(Cl)Cl)c1ccccc1	42.2	> 100	45.6	91.6	> 100	> 100	> 100	> 100	29	63.1
O=[N+]([O-])c1ccc2c(c1)c(N=NC(=S)NC1CCCCC1)c(O)n2CN1CCOCC1	21.8	20	19.7	17.7	> 100	15.7	18	> 100	11.3	14.1
CC1(C)CCC2(C(=O)OC3OC(CO)C(O)C(O)C3O)CCC3(C)C(=CCC4C5(C)CCC(OC6OC(CO)C(O)C(O)C6O)C(C)(C)C5CCC43C)C2C1 (stereo not given)	> 25	> 25	> 25	24.3	> 25	> 25	19	> 25	> 25	> 25
CCOC(=O)C1CCn2c(nc3c2c(=O)n(C)c(=O)n3C)S1 (stereo not given)	> 100		> 100		> 100	> 100		> 100	> 100	> 100
COc1c2c(cc3c1C(O)N1CC[C@]34[C@H]3O[C@H]3[C@H](OC)C[C@@H]14)OCO2 (stereo not given in full)	> 100	> 100	> 100	> 100	> 100	> 100	> 100	> 100	> 100	> 100
CCOC(=O)/C(=C\NCC(OCC)OCC)c1nc2ccccc2[nH]1	> 100	73.3	> 100	94.5	81	> 100	> 100	> 100	28.5	95
COC(=O)C1C(O)CCC2CN3CCc4c([nH]c5cccc(OC)c45)C3CC21 (stereo not given)	> 100	> 100	> 100	> 100	> 100	> 100	> 100	> 100		> 100
O=[n+]1c2c(n([O-])c3ccccc31)-c1cccc3cccc-2c13	> 100	> 100	> 100	> 100	> 100	> 100	> 100	> 100	> 100	
Nc1nc(N)c2c(n1)NC(c1ccccc1)CC(/C=C/c1ccc(Cl)cc1)=N2 (stereo not given)	28.3	21.1	23.6	30.8	9.61	60.8	13.6	26.8	23.4	17.3
[O-][N+](CCO)(CCO)c1ncnc2nc[nH]c12	> 100	> 100	> 100	> 100	> 100	> 100	> 100	> 100	> 100	> 100
CCC(C)C1NC(=O)C2CCCN2C(=O)C(CC2CO2)OC(=O)CCNC(=O)C(C)N(C)C(=O)C(C(C)C)N(C)C1=O (stereo not given)	0.0179	> 100	> 100	> 100	> 100	> 33.6	> 100	> 100	< 0.0276	> 100
COc1ccc(N=c2ssc(C(=S)Nc3ccc(OC)cc3)c2S)cc1	> 100	> 100	> 100	> 100	> 100	> 100	> 100	> 100	> 100	> 100
